# Reference: ChEMBL document CHEMBL1201862, “PubChem BioAssay data set” (2004)
#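 Test compounds were applied to cells in 96-well plates for 48 hours at 5 doses. GI50 is the concentration that inhibits growth by half.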 Active and inactive are the calls of the source. Rule as the data show it: active = GI50 up to about 1.1 µM and inactive = higher.
# Columns and labels:
# Experiment in all cases: NCI tumour cell line growth inhibition, 48 h
# [1] = test system: TK-10
# [2] = test system: SK-MEL-28
# [3] = test system: MOLT-4
# [4] = test system: A549
# [5] = test system: SF-268
# [6] = test system: MDA-MB-231
# [7] = test system: UO-31
# [8] = test system: K562
# [9] = test system: SF-539
# [10] = test system: COLO 205
# [11] = test system: SF-295
# [12] = test system: SK-OV-3
# [13] = test system: MDA-MB-435
# [14] = test system: CCRF-CEM
# [15] = test system: NCI-H23
# [16] = test system: RPMI-8226
# [17] = test system: RXF 393
# [18] = test system: SW-620
# [19] = test system: NCI-H522
# [20] = test system: SNB-19
# [21] = test system: HCC 2998
# [22] = test system: 786-0
# [23] = test system: UACC-257
# [24] = test system: HT-29
# [25] = test system: LOX IMVI
# [26] = test system: OVCAR-5
# [27] = test system: NCI-H460
# [28] = test system: KM12
# [29] = test system: DU-145
# [30] = test system: SN12C
# [31] = test system: A498
# [32] = test system: HOP-62
# [33] = test system: NCI-H226
# [34] = test system: Hs-578T
# [35] = test system: U-251
# [36] = test system: SK-MEL-2
# [37] = test system: Malme-3M
# [38] = test system: MDA-N
# [39] = test system: HCT-116
# [40] = test system: HCT-15
# [41] = test system: SK-MEL-5
# [42] = test system: SR
# [43] = test system: M14
# [44] = test system: PC-3
# [45] = test system: IGROV-1
# [46] = test system: T47D
# [47] = test system: MCF7
# [48] = test system: NCI/ADR-RES
# [49] = test system: ACHN
# [50] = test system: UACC-62
# [51] = test system: HL-60
# [52] = test system: SNB-75
# [53] = test system: OVCAR-8
# [54] = test system: OVCAR-4
# [55] = test system: EKVX
# [56] = test system: HOP-92
# [57] = test system: OVCAR-3
# [58] = test system: BT-549
# [59] = test system: CAKI-1
compound,measurement,setting,value
Cc1nc2c(nc1C)-c1[nH]c3c(c1C(=O)C2=O)CCCC3=O,GI50,[1],17.5 µM (inactive)
same,GI50,[2],1.71 µM (inactive)
same,GI50,[3],2.23 µM (inactive)
same,GI50,[4],3.87 µM (inactive)
same,GI50,[5],1.47 µM (inactive)
same,GI50,[6],1.59 µM (inactive)
same,GI50,[7],4.02 µM (inactive)
same,GI50,[8],2.03 µM (inactive)
same,GI50,[9],1.68 µM (inactive)
same,GI50,[10],2.88 µM (inactive)
same,GI50,[11],1.79 µM (inactive)
same,GI50,[12],2.4 µM (inactive)
same,GI50,[13],0.483 µM (active)
same,GI50,[14],1.91 µM (inactive)
same,GI50,[15],1.93 µM (inactive)
same,GI50,[16],1.25 µM (inactive)
same,GI50,[17],0.516 µM (active)
same,GI50,[18],1.95 µM (inactive)
same,GI50,[19],2.1 µM (inactive)
same,GI50,[20],2.33 µM (inactive)
same,GI50,[21],2.08 µM (inactive)
same,GI50,[22],2.54 µM (inactive)
same,GI50,[23],2.02 µM (inactive)
same,GI50,[24],5.74 µM (inactive)
same,GI50,[25],0.957 µM (active)
same,GI50,[26],2.18 µM (inactive)
same,GI50,[27],3.94 µM (inactive)
same,GI50,[28],1.95 µM (inactive)
same,GI50,[29],4.49 µM (inactive)
same,GI50,[30],1.77 µM (inactive)
same,GI50,[31],8.3 µM (inactive)
same,GI50,[32],2.32 µM (inactive)
same,GI50,[33],1.62 µM (inactive)
same,GI50,[34],3.66 µM (inactive)
same,GI50,[35],1.34 µM (inactive)
same,GI50,[36],1.79 µM (inactive)
same,GI50,[37],1.29 µM (inactive)
same,GI50,[38],0.685 µM (active)
same,GI50,[39],2.54 µM (inactive)
same,GI50,[40],2.81 µM
same,GI50,[41],1.49 µM (inactive)
same,GI50,[42],2.08 µM (inactive)
same,GI50,[43],1.77 µM (inactive)
same,GI50,[44],4.25 µM (inactive)
same,GI50,[45],2.55 µM (inactive)
same,GI50,[46],592 nM (active)
same,GI50,[47],1.38 µM (inactive)
same,GI50,[48],2.25 µM (inactive)
same,GI50,[49],2.64 µM (inactive)
same,GI50,[50],1.71 µM (inactive)
same,GI50,[51],2.42 µM (inactive)
same,GI50,[52],1.77 µM (inactive)
same,GI50,[53],1.5 µM (inactive)
same,GI50,[54],1.6 µM (inactive)
same,GI50,[55],1.48 µM (inactive)
same,GI50,[56],1.69 µM (inactive)
C/C(=N\c1ccc(Cl)c(Cl)c1)c1ccncc1,GI50,[1],> 100 µM (inactive)
same,GI50,[2],> 100 µM (inactive)
same,GI50,[3],> 100 µM (inactive)
same,GI50,[5],> 100 µM (inactive)
same,GI50,[6],> 100 µM (inactive)
same,GI50,[8],> 100 µM (inactive)
same,GI50,[10],> 100 µM (inactive)
same,GI50,[11],> 100 µM (inactive)
same,GI50,[12],> 100 µM (inactive)
same,GI50,[57],> 100 µM (inactive)
same,GI50,[14],> 100 µM (inactive)
same,GI50,[15],> 100 µM (inactive)
same,GI50,[17],> 100 µM (inactive)
same,GI50,[18],> 100 µM (inactive)
same,GI50,[19],> 100 µM (inactive)
same,GI50,[20],> 100 µM (inactive)
same,GI50,[21],> 10 µM (inactive)
same,GI50,[22],> 100 µM (inactive)
same,GI50,[24],> 100 µM (inactive)
same,GI50,[25],> 100 µM (inactive)
same,GI50,[27],> 100 µM (inactive)
same,GI50,[28],> 100 µM (inactive)
same,GI50,[30],> 100 µM (inactive)
same,GI50,[32],> 100 µM (inactive)
same,GI50,[33],> 100 µM (inactive)
same,GI50,[34],> 100 µM (inactive)
same,GI50,[35],> 100 µM (inactive)
same,GI50,[38],> 100 µM (inactive)
same,GI50,[39],> 100 µM (inactive)
same,GI50,[43],> 100 µM (inactive)
same,GI50,[44],> 100 µM (inactive)
same,GI50,[48],> 100 µM (inactive)
same,GI50,[50],> 100 µM (inactive)
same,GI50,[52],> 100 µM (inactive)
same,GI50,[58],> 100 µM (inactive)
same,GI50,[53],> 100 µM (inactive)
same,GI50,[54],> 100 µM (inactive)
same,GI50,[56],> 100 µM (inactive)
O=C1/C(=C/c2cccc(Br)c2)CCc2ccccc21,GI50,[1],16.5 µM (inactive)
same,GI50,[2],18.4 µM (inactive)
same,GI50,[59],16 µM (inactive)
same,GI50,[3],10.2 µM (inactive)
same,GI50,[4],16.4 µM (inactive)
same,GI50,[5],6.76 µM (inactive)
same,GI50,[6],20.4 µM (inactive)
same,GI50,[7],13.8 µM (inactive)
same,GI50,[8],6.65 µM (inactive)
same,GI50,[9],17.5 µM (inactive)
same,GI50,[10],20.8 µM (inactive)
same,GI50,[11],15.2 µM (inactive)
same,GI50,[12],22.8 µM (inactive)
same,GI50,[57],15.2 µM (inactive)
same,GI50,[13],12.4 µM (inactive)
same,GI50,[14],3.26 µM (inactive)
same,GI50,[15],15.8 µM (inactive)
same,GI50,[16],2.99 µM (inactive)
same,GI50,[18],5.51 µM (inactive)
same,GI50,[19],10.6 µM (inactive)
same,GI50,[20],14.7 µM (inactive)
same,GI50,[22],16.3 µM (inactive)
same,GI50,[23],14.8 µM (inactive)
same,GI50,[24],10.9 µM (inactive)
same,GI50,[25],12.8 µM (inactive)
same,GI50,[26],14.9 µM (inactive)
same,GI50,[27],15.2 µM (inactive)
same,GI50,[28],4.02 µM (inactive)
same,GI50,[29],17.2 µM (inactive)
same,GI50,[30],15.4 µM (inactive)
same,GI50,[32],16 µM (inactive)
same,GI50,[33],15.2 µM (inactive)
same,GI50,[34],6.05 µM (inactive)
same,GI50,[35],14.6 µM (inactive)
same,GI50,[36],12.9 µM (inactive)
same,GI50,[37],12.4 µM (inactive)
same,GI50,[38],10.8 µM (inactive)
same,GI50,[39],7.69 µM (inactive)
same,GI50,[40],11.5 µM
same,GI50,[42],4.1 µM (inactive)
same,GI50,[43],15.8 µM (inactive)
same,GI50,[44],14.2 µM (inactive)
same,GI50,[45],11.4 µM (inactive)
same,GI50,[47],3.75 µM (inactive)
same,GI50,[48],14 µM (inactive)
same,GI50,[49],14.2 µM (inactive)
same,GI50,[50],10.5 µM (inactive)
same,GI50,[51],5.68 µM (inactive)
same,GI50,[52],14.5 µM (inactive)
same,GI50,[58],9.53 µM (inactive)
same,GI50,[53],16.1 µM (inactive)
same,GI50,[54],13.1 µM (inactive)
same,GI50,[55],17.6 µM (inactive)
same,GI50,[56],14.7 µM (inactive)
